Measurements taken from publication PMC6143625, “A high throughput screen for next-generation leads targeting malaria parasite transmission” (Nature Communications, 2018).

Tests used:
[1] = system: P. falciparum stage V male gametocytes (male gamete formation); experiment: P. falciparum dual gamete formation assay (Pf DGFA), male readout (exflagellation), 48 h carry-over format; assay type: cell-based, Plasmodium falciparum NF54; conditions: primary screen, 2 uM, 48 h incubation, single replicate
Procedure: (§1) P. falciparum NF54 strain (originally isolated from an imported malaria case in the Netherlands in the 1980s; BEI Resources, cat. no. MRA-1000) asexual and sexual stages culture was performed as previously described. Gametocyte cultures were initiated at 1% asexual ring stage parasitaemia and 4% haematocrit in 40 ml final volume. To induce gametocyte production, complete culture medium (CM) (RPMI 1640 supplemented with 25 mM HEPES, 50 µg ml^−1 hypoxanthine, 2 g l^−1 NaHCO3 and 10% pooled human male type A+ serum) was replaced daily for 14 days without fresh erythrocyte addition. Human serum was obtained from Interstate Blood Bank, A^+ serotype; no aspirin 2 h before drawing and no antimalarials 2 weeks before drawing. On day 14 after culture induction, gametocyte production was assessed by thin smear and Giemsa staining, and exflagellation accurately counted in a haemocytometer. Gametocyte cultures with >0.2% exflagellation (compared to total erythrocyte cell number) were deemed acceptable for use in the Pf DGFA. Note, all human biological samples were sourced ethically and their research use was in accord with the terms of the informed consents under an IRB/EC approved protocol.
(§2) In screening mode, the assay was performed as described in Delves et al.[35] with a mean Z′ factor of 0.56 ± 0.14 (SD) (male) and 0.71 ± 0.17 (SD) (female). Pooled mature gametocyte cultures with the capacity to yield >0.2% exflagellation (of total cells) were diluted in CM to 14 million cells per ml and so that 700,000 cells were dispensed in 50 µl into each well of the warmed 384-well screening plates. Parasites were incubated in the plates with compounds for 48 h in a humidified chamber under 92%N2/5% CO2/3% O2 gas mix before gamete formation was triggered by addition of 10 µl per well ookinete medium (RPMI 1640 supplemented with 25 mM HEPES, 50 µg ml^−1 hypoxanthine, 2 g l^−1 NaHCO3, 100 µM xanthurenic acid) containing 0.5 µg ml^−1 anti-Pfs25 clone 4B7 (BEI Resources, cat. no. MRA-315) conjugated to the fluorophore Cy3 (GE Healthcare), and also by cooling the plate at 4 °C for 4 min and then a further 5 min at 28 °C. Exflagellation was recorded immediately by brightfield microscopy using a Nikon Ti-E widefield microscope at ×4 objective, ×1.5 zoom, recording a 10-frame video time-lapse over 2 s for each well. Afterwards, plates were incubated in the dark at 28 °C for a further 24 h to allow female gametes to maximally express Pfs25 on their surface. Female gamete formation was recorded by single-image fluorescence microscopy using the same microscope and magnification as above. Exflagellation and female gamete formation were quantified by specific algorithms designed with the open-source ICY Image Analysis software.
(§3) Assay performance statistics, such as signal to background ratio, Z′ and robust 3×SD activity cut-off were calculated using templates in ActivityBase XE (IDBS, Guilford, Surrey, UK). Hit population analysis and visualisation were conducted using Spotfire DecisionSite (Spotfire, Inc., Somerville, Massachusetts). The pIC50 (−log IC50) values were obtained using the ActivityBase XE nonlinear regression function in the full curve analysis bundle. In screening mode, the Pf DGFA achieved a mean Z′ factor of 0.56 ± 0.14 (SD) (male) and 0.71 ± 0.17 (SD) (female).

[2] = system: P. falciparum stage V female gametocytes (female gamete formation); experiment: P. falciparum dual gamete formation assay (Pf DGFA), female readout (Pfs25 expression), 48 h carry-over format; assay type: cell-based, Plasmodium falciparum NF54; conditions: primary screen, 2 uM, 48 h incubation, single replicate
Procedure: as §1
as §2, with “Parasites were incubated in the plates with compounds for 48 h in a humidified chamber under” left out
as §3

Row | SMILES | %Inhibition Male @2uM [1] [%] | %Inhibition Female @2uM [2] [%]
1 | COC(=O)C1CCCN1C(=O)c1ccc(-n2nc(C)cc2C)cc1 (stereo not drawn) [DDD01075977] | <30 | 33.22
2 | Fc1ccc(-c2nnc(CNC3CCc4ncnn4C3)o2)cc1 (stereo not drawn) [DDD01076055] | <30 | 36.38
3 | Cc1noc(CS(=O)(=O)C(C)C(=O)N(C)c2ccccc2)n1 (stereo not drawn) [DDD01076606] | 31.49 | <30
4 | CN(C)C(=O)c1ccc(NCCNc2ccc3ccccc3n2)nc1 [DDD01076923] | 31.80 | <30
5 | CN(CC(N)=O)C(=O)C1Cc2cc(Cl)ccc2O1 (stereo not drawn) [DDD01077287] | <30 | 46.87
6 | O=S(=O)(NC1CCCCC12OCCO2)c1cc(F)cc(F)c1 (stereo not drawn) [DDD01077321] | <30 | 41.54
7 | CC(CCc1ccccc1)N1CCC(C(=O)Nc2cnccn2)CC1 (stereo not drawn) [DDD01077885] | 52.25 | <30
8 | CC(C)c1nsc(N2CCc3sccc3C2)n1 [DDD01078291] | 38.07 | <30
9 | CSc1ccc(OCCN2CCNC(=O)CC2)cc1 [DDD01078342] | <30 | 31.10
10 | CC(CNC(=O)c1cnc[nH]1)Oc1ccc(Cl)cc1 (stereo not drawn) [DDD01078520] | <30 | 32.98
11 | Cc1cc(C)c(C(=O)N2CCc3c(ncn3CCc3ccccc3)C2)[nH]1 [DDD01078816] | <30 | 31.51
12 | CCS(=O)(=O)c1ccc(N2CCC(NC(C)=O)CC2)cc1 [DDD01080141] | <30 | 30.47
13 | CCN(CC)CC(=O)NCCc1csc(N2CCCC2)n1 [DDD01080188] | <30 | 40.13
14 | Cc1ccc(C2COCCN2C(=O)c2ccc(CN(C)C)cc2)o1 (stereo not drawn) [DDD01080189] | <30 | 41.68
15 | NC(=O)c1ccc(N2CCCCC2)c(NC(=O)c2cc(Br)ccc2F)c1 [DDD01080647] | <30 | 45.72
16 | CCc1cnc(CN(C(C)=O)C2CCN(CCS(C)(=O)=O)C2)o1 (stereo not drawn) [DDD01081064] | 46.67 | <30
17 | CCOC1CCC2(CCN(C(=O)c3csnn3)CC2)c2ccccc21 (stereo not drawn) [DDD01081288] | 95.81 | <30
18 | CS(=O)(=O)N1Cc2ccnn2CC(C(=O)NCc2cccnc2)C1 (stereo not drawn) [DDD01081357] | 43.36 | <30
19 | COc1ccc2c(c1)C1(CCNCC1)CC2NC1CC1 (stereo not drawn) [DDD01081368] | 45.77 | <30
20 | O=C1CC[C@@H]2[C@@H](CCN2S(=O)(=O)C2CC2)N1CC1CC1 [DDD01081437] | 31.40 | <30

Row | SMILES | %Inhibition Male @2uM [1] [%] | %Inhibition Female @2uM [2] [%]
21 | c1c(CN2CCOCC2)nc2n1CCN(CC1CC1)C2 [DDD01081604] | 36.99 | <30
22 | CN(C)[C@@H]1CCN(S(C)(=O)=O)[C@H]1Cc1ccccc1 [DDD01081694] | 32.12 | <30
23 | CCc1cnc(N2CC[C@H]3[C@@H]2CCC(=O)N3c2ccccc2)nc1 [DDD01081766] | 33.06 | <30
24 | CC(C)n1nc(CN2CCCC2=O)c2c1CN(C(=O)c1ccc[nH]1)C2 [DDD01081769] | <30 | 30.49
25 | O=C(c1ccoc1)N1CCOC2(COCCN(CC3CC3)C2)C1 (stereo not drawn) [DDD01082156] | <30 | 30.05
26 | CC(C)N(C)Cc1cncc2c1CCN(CC(=O)N(C)C)C2 [DDD01082190] | <30 | 42.20
27 | CC1c2ncc(Cn3cccn3)n2CCN1c1ncccn1 (stereo not drawn) [DDD01082239] | <30 | 34.70
28 | CCCN1CCC(c2nc3ccc(-c4cccc(OC)c4)cn3n2)CC1 [DDD01082327] | <30 | 35.67
29 | CCOCC(=O)N1CCc2nc(C)nc(NC(C)C)c2CC1 [DDD01082409] | 45.90 | <30
30 | O=C(NC1CC1)[C@H]1CC[C@@H]2[C@@H](CCN2CCOCc2ccccc2)O1 [DDD01082763] | 87.75 | <30
31 | Cn1cncc1C(=O)N1C[C@@H]2CCN(c3cnccn3)C[C@@H]2C1 [DDD01082777] | <30 | 40.85
32 | O=S(=O)(c1ccccc1)N1CCC2(CCCN2Cc2ccccc2Cl)C1 (stereo not drawn) [DDD01083172] | 37.32 | <30
33 | CS(=O)(=O)NCc1nnc2n1CCN(Cc1cccnc1)C2 [DDD01083181] | 31.87 | <30
34 | COc1ccc(CN2CC[C@@H](O)[C@@H]2Cc2cnn(C)c2)cc1 [DDD01083182] | 38.13 | <30
35 | CC1=N[C@@]2(CC[C@@H]3CN(S(=O)(=O)CC(C)C)C[C@@H]32)C(=O)N1CC1CC1 [DDD01083262] | <30 | 94.03
36 | CN(C)C(=O)N1CCCC2(CCN(c3ccsc3)C2=O)C1 (stereo not drawn) [DDD01083808] | <30 | 43.49
37 | CN(C)[C@@H]1CCN(C(=O)Cc2cccs2)[C@H]1Cc1ccncc1 [DDD01083822] | 35.35 | <30
38 | O=C(c1ccnnc1)N1C[C@H](OCc2ccccn2)[C@H]2COC[C@H]21 [DDD01084503] | <30 | 32.17
39 | CN(C)CCN1CCN(C)c2nc(-c3ccccc3)ncc2C1=O [DDD01235874] | 34.25 | <30
